Tests used:
hERG channel = biological target: T1, hERG channel (Homo sapiens, UniProt Q12809); assay: hERG channel inhibition assay (patch-clamp, CHOhERG cells); format: cell-based; conditions: for IC50 / IC20: CHOhERG cells, whole-cell patch-clamp; for IC20: human, CHO cells stably expressing hERG (CHOhERG); for hERG IC20/TLR7 IC50 / hERG IC20/TLR8 IC50 / hERG IC20/TLR9 IC50: safety ratio
T1 construct: expressed in transfected cells; host or cells: CHO (Chinese hamster ovary), CHOhERG
Method: hERG Channel Inhibition Assay:
The hERG K^+ channels were cloned in humans and stably expressed in a CHO (Chinese hamster ovary) cell line. CHOhERG cells were used for patch-clamp (voltage-clamp, whole-cell) experiments. Cells were stimulated by a voltage pattern to activate hERG channels and conduct IKhERG currents (rapid delayed outward rectifier potassium current of the hERG channel). After the cells were stabilized for a few minutes, the amplitude and kinetics of IKhERG were recorded at a stimulation frequency of 0.1 Hz (6 bpm). Thereafter, the test compound was added to the preparation at increasing concentrations. For each concentration, an attempt was made to reach a steady-state effect, usually, this was achieved within 3-10 min at which time the next highest concentration was applied. The amplitude and kinetics of IKhERG are recorded in each concentration of the drug which were compared to the control values (taken as 100%). (references: Redfern W S, Carlsson L, Davis A S, Lynch W G, MacKenzie I, Palethorpe S, Siegl P K, Strang I, Sullivan A T, Wallis R, Camm A J, Hammond T G. 2003; Relationships between preclinical cardiac electrophysiology, clinical QT interval prolongation and torsade de pointes for a broad range of drugs: evidence for a provisional safety margin in drug development. Cardiovasc. Res. 58:32-45, Sanguinetti M C, Tristani-Firouzi M. 2006; hERG potassium channels and cardiac arrhythmia. Nature 440:463-469, Webster R, Leishman D, Walker D. 2002; Towards a drug concentration effect relationship for QT prolongation and torsades de pointes. Curr. Opin. Drug Discov. Devel. 5:116-26).
The calculation of hERG IC20/TLR7/8/9 IC50 below serves as early selectivity index to assess hERG liability.

human TLR9 = biological target: T2, human TLR9 (Homo sapiens, UniProt Q9NR96); assay: HEK293-Blue-hTLR-9 cells assay; format: cell-based; conditions: HEK293-Blue-hTLR9 cells, ODN2006 stimulation, 20 hrs, SEAP reporter; read-out: HEK/hTLR9 IC50
T2 construct: host or cells: HEK293 (HEK-Blue hTLR9)
T2 sequence (Q9NR96 26-1032): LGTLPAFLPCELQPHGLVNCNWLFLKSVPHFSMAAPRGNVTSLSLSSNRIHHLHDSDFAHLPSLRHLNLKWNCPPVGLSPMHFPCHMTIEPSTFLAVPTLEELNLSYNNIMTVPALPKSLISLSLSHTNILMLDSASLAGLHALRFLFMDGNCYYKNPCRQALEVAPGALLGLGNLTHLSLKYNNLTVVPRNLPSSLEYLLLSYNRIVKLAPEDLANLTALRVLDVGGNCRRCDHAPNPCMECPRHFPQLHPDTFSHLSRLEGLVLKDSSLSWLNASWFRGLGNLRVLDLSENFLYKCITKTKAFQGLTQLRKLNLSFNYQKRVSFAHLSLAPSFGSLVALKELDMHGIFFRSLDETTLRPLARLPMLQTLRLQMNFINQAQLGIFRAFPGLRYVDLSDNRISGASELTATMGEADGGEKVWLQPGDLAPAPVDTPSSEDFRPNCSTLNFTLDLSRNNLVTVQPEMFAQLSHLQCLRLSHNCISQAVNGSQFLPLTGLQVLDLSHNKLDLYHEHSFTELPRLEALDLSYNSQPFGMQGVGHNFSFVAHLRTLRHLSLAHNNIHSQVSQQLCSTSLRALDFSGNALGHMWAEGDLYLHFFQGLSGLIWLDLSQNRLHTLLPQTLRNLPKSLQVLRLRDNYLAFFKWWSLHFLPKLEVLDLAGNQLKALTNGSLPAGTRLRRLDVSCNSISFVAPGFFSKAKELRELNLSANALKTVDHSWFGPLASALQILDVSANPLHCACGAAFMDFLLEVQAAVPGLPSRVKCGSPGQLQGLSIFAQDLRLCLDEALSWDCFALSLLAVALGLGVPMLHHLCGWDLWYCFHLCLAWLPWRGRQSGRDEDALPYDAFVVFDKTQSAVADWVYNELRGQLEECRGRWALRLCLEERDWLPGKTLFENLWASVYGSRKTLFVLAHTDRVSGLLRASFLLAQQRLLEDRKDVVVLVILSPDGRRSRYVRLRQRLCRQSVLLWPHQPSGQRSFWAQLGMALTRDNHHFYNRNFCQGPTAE

T1 sequence (Q12809 whole entry): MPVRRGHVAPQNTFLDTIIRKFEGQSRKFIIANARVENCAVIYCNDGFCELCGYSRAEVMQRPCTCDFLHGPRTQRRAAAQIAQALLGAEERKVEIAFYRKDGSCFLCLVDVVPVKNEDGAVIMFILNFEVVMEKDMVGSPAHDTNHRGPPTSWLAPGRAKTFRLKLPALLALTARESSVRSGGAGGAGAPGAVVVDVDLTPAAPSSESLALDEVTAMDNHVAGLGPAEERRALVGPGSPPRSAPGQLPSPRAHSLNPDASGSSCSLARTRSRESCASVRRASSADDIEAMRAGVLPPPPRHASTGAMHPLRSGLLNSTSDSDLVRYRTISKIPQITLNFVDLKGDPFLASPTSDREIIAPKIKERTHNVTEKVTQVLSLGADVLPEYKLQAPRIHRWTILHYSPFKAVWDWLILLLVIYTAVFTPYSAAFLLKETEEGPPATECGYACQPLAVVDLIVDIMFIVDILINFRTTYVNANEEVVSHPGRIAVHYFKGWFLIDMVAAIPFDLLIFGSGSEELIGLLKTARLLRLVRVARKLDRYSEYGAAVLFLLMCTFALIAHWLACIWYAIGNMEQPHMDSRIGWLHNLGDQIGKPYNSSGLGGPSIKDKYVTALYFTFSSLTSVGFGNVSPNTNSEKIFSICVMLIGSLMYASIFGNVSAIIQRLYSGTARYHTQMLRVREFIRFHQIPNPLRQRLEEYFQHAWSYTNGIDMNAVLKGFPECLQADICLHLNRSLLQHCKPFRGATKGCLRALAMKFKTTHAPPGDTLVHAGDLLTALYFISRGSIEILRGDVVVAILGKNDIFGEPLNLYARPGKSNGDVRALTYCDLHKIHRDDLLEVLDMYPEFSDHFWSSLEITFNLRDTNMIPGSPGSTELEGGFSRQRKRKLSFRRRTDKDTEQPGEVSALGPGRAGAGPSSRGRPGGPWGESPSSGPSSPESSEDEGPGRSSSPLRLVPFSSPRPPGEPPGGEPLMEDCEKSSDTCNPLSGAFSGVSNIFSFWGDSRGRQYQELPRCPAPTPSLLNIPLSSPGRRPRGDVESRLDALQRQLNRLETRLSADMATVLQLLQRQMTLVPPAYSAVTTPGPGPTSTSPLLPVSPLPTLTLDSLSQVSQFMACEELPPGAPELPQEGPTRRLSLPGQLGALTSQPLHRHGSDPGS

Row | IC50 (human TLR9) [µM] | SMILES | IC50 (hERG channel) [µM] | IC20 (hERG channel) [µM] | hERG IC20/TLR7 IC50 (hERG channel) | hERG IC20/TLR8 IC50 (hERG channel) | hERG IC20/TLR9 IC50 (hERG channel)
1 | 0.119 | [2H]c1ccc2c(N3C[C@@H]4CN(c5ncc(N6C[C@@H]7C[C@H]6CN7)cc5C)CCN4[C@@H](C)C3)ccc(C#N)c2n1 [Example 111, 5-[(4S,9aR)-8-[5-[(1S,4S)-2,5-diazabicyclo[2.2.1]heptan-2-yl]-3-methyl-2-pyridyl]-4-methyl-3,4,6,7,9,9a-hexahydro-1H-pyrazino[1,2-a]pyrazin-2-yl]-2-deuterio-quinoline-8-carbonitrile] | > 20 | > 10 | >1666 | >2000 | >84
2 | 0.047 | C[C@@H]1CN(c2ccc(C#N)c3ncccc23)C[C@@H]2CN(CCc3ccc(N4CC5(CN(C)C5)C4)nc3)CCN21 [Example 22, 5-[(4R,9aS)-4-methyl-8-[2-[6-(6-methyl-2,6-diazaspiro[3.3]heptan-2-yl)-3-pyridyl]ethyl]-3,4,6,7,9,9a-hexahydro-1H-pyrazino[1,2-a]pyrazin-2-yl]quinoline-8-carbonitrile] | > 20 | > 10 | >385 | >172 | >213
3 | 0.062 | CO[C@@H]1CN(c2ccnc(N3CCN4[C@@H](C3)CN(c3ccc(C#N)c5ncccc35)C[C@H]4C)n2)C[C@H]1N [Example 37, 5-[(4R,9aR)-8-[4-[(3R,4R)-3-amino-4-methoxy-pyrrolidin-1-yl]pyrimidin-2-yl]-4-methyl-3,4,6,7,9,9a-hexahydro-1H-pyrazino[1,2-a]pyrazin-2-yl]quinoline-8-carbonitrile] | > 10 | 4.5 | 214 | 173 | 73
4 | 0.048 | Cc1cc(N2CCN3[C@@H](C2)CN(c2ccc(C#N)c4ncccc24)C[C@H]3C)nc(N2CC(C)(N)C2)n1 [Example 55, 5-[(4R,9aR)-8-[2-(3-amino-3-methyl-azetidin-1-yl)-6-methyl-pyrimidin-4-yl]-4-methyl-3,4,6,7,9,9a-hexahydro-1H-pyrazino[1,2-a]pyrazin-2-yl]quinoline-8-carbonitrile] | > 20 | > 10 | >680 | >249 | >209
5 | 0.142 | C[C@@H]1CN(c2ccc(C#N)n3ncc(F)c23)C[C@@H]2CN(Cc3ccc4c(c3)CNCC4)CCN21 [Example 69, 4-[(4R,9aS)-4-methyl-8-(1,2,3,4-tetrahydroisoquinolin-7-ylmethyl)-3,4,6,7,9,9a-hexahydro-1H-pyrazino[1,2-a]pyrazin-2-yl]-3-fluoro-pyrazolo[1,5-a]pyridine-7-carbonitrile] | > 20 | > 10 | >152 | >192 | >70
6 | 0.085 | [2H]c1ccc2c(N3C[C@@H]4CN(c5ccc6c(n5)CCNC6)CCN4[C@@H](C)C3)ccc(C#N)c2n1 [Example 121, 5-[(4S,9aR)-4-methyl-8-(5,6,7,8-tetrahydro-1,6-naphthyridin-2-yl)-3,4,6,7,9,9a-hexahydro-1H-pyrazino[1,2-a]pyrazin-2-yl]-2-deuterio-quinoline-8-carbonitrile] | > 20 | > 10 | >2000 | >10000 | >117
7 | 0.046 | [2H]c1ccc2c(N3C[C@@H]4CN(Cc5ccc(N6CC(C)(N)C6)nc5C)CCN4[C@H](C)C3)ccc(C#N)c2n1 [Example 79, 5-[(4R,9aS)-8-[[6-(3-amino-3-methyl-azetidin-1-yl)-2-methyl-3-pyridyl]methyl]-4-methyl-3,4,6,7,9,9a-hexahydro-1H-pyrazino[1,2-a]pyrazin-2-yl]-2-deuterio-quinoline-8-carbonitrile] | > 20 | > 10 | >526 | >1666 | >217
8 | 0.126 | Cc1cc(N2CC3(CN(C)C3)C2)cnc1N1CCN2[C@@H](C1)CN(c1cc(=O)n(C)c3ncccc13)C[C@@H]2C [Example 113, 4-[(4S,9aR)-4-methyl-8-[3-methyl-5-(6-methyl-2,6-diazaspiro[3.3]heptan-2-yl)-2-pyridyl]-3,4,6,7,9,9a-hexahydro-1H-pyrazino[1,2-a]pyrazin-2-yl]-1-methyl-1,8-naphthyridin-2-one] | > 20 | > 10 | >1666 | >70 | >79
9 | 0.081 | CO[C@@H]1CN(c2nc(C)cc(N3CCN4[C@@H](C3)CN(c3ccc(C#N)c5ncccc35)C[C@H]4C)n2)C[C@H]1N [Example 45, 5-[(4R,9aR)-8-[2-[(3R,4R)-3-amino-4-methoxy-pyrrolidin-1-yl]-6-methyl-pyrimidin-4-yl]-4-methyl-3,4,6,7,9,9a-hexahydro-1H-pyrazino[1,2-a]pyrazin-2-yl]quinoline-8-carbonitrile] | > 20 | > 10 | >556 | >357 | >124
10 | < 0.032 | C[C@@H]1CN(c2ccc(C#N)c3ncccc23)C[C@@H]2CN(Cc3ccc4c(c3)CNCC4)CCN21 [Example 5, 5-[(4R,9aS)-4-methyl-8-(1,2,3,4-tetrahydroisoquinolin-7-ylmethyl)-3,4,6,7,9,9a-hexahydro-1H-pyrazino[1,2-a]pyrazin-2-yl]quinoline-8-carbonitrile] | > 20 | > 10 | >588 | >833 | >313
11 | 0.095 | C[C@@H]1CN(c2ccc(C#N)c3ncccc23)C[C@@H]2CN(c3nccc(N4CC(N)C4)n3)CCN21 [Example 39, 5-[(4R,9aR)-8-[4-(3-aminoazetidin-1-yl)pyrimidin-2-yl]-4-methyl-3,4,6,7,9,9a-hexahydro-1H-pyrazino[1,2-a]pyrazin-2-yl]quinoline-8-carbonitrile] | > 10 | 5 | 238 | 294 | 53
12 | 0.042 | C[C@@H]1CN(c2ccc(C#N)c3ncccc23)C[C@@H]2CN(c3cc(N4CCNCC4)ccn3)CCN21 [Example 34, 5-[(4R,9aR)-4-methyl-8-(4-piperazin-1-yl-2-pyridyl)-3,4,6,7,9,9a-hexahydro-1H-pyrazino[1,2-a]pyrazin-2-yl]quinoline-8-carbonitrile] | > 10 | 4.74 | 237 | 339 | 113

Row | SMILES | IC50 (human TLR9) [µM] | IC50 (hERG channel) [µM] | IC20 (hERG channel) [µM] | hERG IC20/TLR7 IC50 (hERG channel) | hERG IC20/TLR8 IC50 (hERG channel) | hERG IC20/TLR9 IC50 (hERG channel)
13 | [2H]c1ccc2c(N3C[C@@H]4CN(c5ccc(N6CC7CCC(C6)N7)nc5)CCN4[C@@H](C)C3)ccc(C#N)c2n1 [Example 112, 5-[(4S,9aR)-8-[6-(3,8-diazabicyclo[3.2.1]octan-3-yl)-3-pyridyl]-4-methyl-3,4,6,7,9,9a-hexahydro-1H-pyrazino[1,2-a]pyrazin-2-yl]-2-deuterio-quinoline-8-carbonitrile] | 0.082 | > 20 | > 10 | >2500 | >1000 | >122

From patent US20220340597A1, “HEXAHYDRO-1H-PYRAZINO[1,2-A]PYRAZINE COMPOUNDS FOR THE TREATMENT OF AUTOIMMUNE DISEASE” (Hoffmann-La Roche Inc., priority 2019, published 2022)
